# In patent US20250353873A1, “COMPOUNDS AND METHODS FOR MODULATING APOE EXPRESSION” (Ionis Pharmaceuticals, Inc., priority 2024, published 2025):
# Strand notation (5' to 3'): a small letter for the sugar, then the base; units joined by * are phosphorothioate-linked, units joined directly phosphodiester-linked; [ ] holds rarer units or linkages, { } end groups; capitals alone tell only the bases. [ms] = mesyl phosphoramidate linkage; e = 2'-O-(2-methoxyethyl) (MOE); k = constrained ethyl (cEt); [5mC] = 5-methylcytosine; d = 2'-deoxy (DNA)
# How the values were obtained:
# [1] = system: human APOE RNA; assay: Dose-dependent reduction of human APOE RNA in HepG2 cells, electroporation, 20,000 cells per well, average of GAPDH- and PPIA-normalized results (Example 4, Table 12); format: cell-based; conditions: HepG2, 20,000 cells per well; for IC50: approximately 24 hours
# Description: HepG2 cells plated at a density of 20,000 cells per well were treated by electroporation with various concentrations of modified oligonucleotide as specified in the tables below. […] APOE RNA levels were measured using the human primer probe set RTS3073 (described herein above). APOE RNA levels were normalized to human GAPDH, and human PPIA. Human GAPDH was amplified using human primer probe set RTS104 (described herein above). Human PPIA was amplified using human primer probe set mk_cycloA_2nd (described herein above) The average of the GAPDH-normalized results and the PPIA-normalized results are presented in the table below as percent APOE RNA, relative to the amount of APOE RNA in untreated control cells (% UTC). The half maximal inhibitory concentration (IC50) of each modified oligonucleotide was calculated in GraphPad Prism 10 (GraphPad Software, San Diego, CA) and is also presented in the table below.
# [2] = system: human APOE RNA; assay: Dose-dependent inhibition of human APOE RNA in differentiated SH-SY5Y cells, free uptake, 5 days (Example 5); format: cell-based; conditions: 5 days (Table 14)
# Description: Modified oligonucleotides selected from the examples above were tested at various doses in differentiated SH-SY5Y cells. The modified oligonucleotides were tested in a series of experiments that had the same culture conditions.
# Differentiated SH-SY5Y cells plated at a density of 10,000 cells per well were treated by free uptake with various concentrations of modified oligonucleotide as specified in the tables below. […] APOE RNA levels were measured using the human primer probe set RTS3073 (described herein above). APOE RNA levels were normalized to human PPIA. Human PPIA was amplified using human primer probe set mk_cycloA_2nd (described herein above). Results are presented as percent APOE RNA, relative to the amount of APOE RNA in untreated control cells (% UTC). The half maximal inhibitory concentration (IC50) of each modified oligonucleotide was calculated in GraphPad Prism 10 (GraphPad Software, San Diego, CA) and is also presented in the tables below.
# [3] = system: human APOE RNA; assay: Activity in APOE C57BL/6NTac-Apoeem7250 knock-in mice, single ICV bolus, 4 weeks (Example 10); format: in vivo; conditions: single ICV bolus 300 μg, 4 weeks post treatment, normalized to mouse Ppia
# Method in brief: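 Knock-in mice (2–4 per group) received one 300 μg ICV bolus of oligonucleotide or PBS. After four weeks, human APOE RNA in cortex and spinal cord measured by RT-qPCR (primer probe set RTS3073), normalized to mouse Ppia, expressed as % of PBS controls.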
# [4] = system: human APOE RNA; assay: Activity in APOE C57BL/6NTac-Apoeem7250 knock-in mice, single ICV bolus, 8 weeks (Example 11); format: in vivo; conditions: single ICV bolus 300 μg, 8 weeks post treatment, normalized to mouse Ppia
# Method in brief: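 Human APOE knock-in C57BL/6NTac mice given one ICV bolus of 300 μg oligonucleotide; PBS-dosed group as control. At 8 weeks, cortex and spinal cord RNA measured by qRT-PCR (human probe RTS3073), normalized to mouse Ppia, expressed as % of PBS control.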
# [5] = system: human APOE RNA; assay: Activity in APOE C57BL/6NTac-Apoeem7250 knock-in mice, single ICV bolus, 16 weeks (Example 12); format: in vivo; conditions: single ICV bolus 300 μg, 16 weeks post treatment, normalized to mouse Ppia
# Method in brief: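 Knock-in mice (3-4 per group) received one ICV bolus of 300 μg oligonucleotide, PBS as control. After 16 weeks, human APOE RNA in cortex and spinal cord measured by RT-qPCR, normalized to mouse Ppia, and reported as % of PBS control.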
# [6] = system: human APOE RNA; assay: Activity in APOE C57BL/6NTac-Apoeem7250 knock-in mice, single ICV bolus, 20 weeks (Example 13); format: in vivo; conditions: single ICV bolus 300 μg, 20 weeks post treatment, normalized to mouse Ppia
# Method in brief: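 Knock-in mice (n=4) given a single ICV bolus of 300 μg oligonucleotide, PBS as control. After 20 weeks, human APOE RNA in cortex and spinal cord measured by RT-qPCR, normalized to mouse Ppia, expressed as % of PBS-treated animals.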
Substance,APOE RNA (% UTC) ([1]; 5 nM),APOE RNA (% UTC) ([1]; 13 nM),APOE RNA (% UTC) ([1]; 33 nM),APOE RNA (% UTC) ([1]; 82 nM),APOE RNA (% UTC) ([1]; 205 nM),APOE RNA (% UTC) ([1]; 512 nM),"APOE RNA (% UTC) ([1]; 1,280 nM)","APOE RNA (% UTC) ([1]; 3,200 nM)","APOE RNA (% UTC) ([1]; 8,000 nM)","APOE RNA (% UTC) ([1]; 20,000 nM)",IC50 [1] [nM],APOE RNA (% UTC) ([2]; 5 nM),APOE RNA (% UTC) ([2]; 13 nM),APOE RNA (% UTC) ([2]; 33 nM),APOE RNA (% UTC) ([2]; 82 nM),APOE RNA (% UTC) ([2]; 205 nM),APOE RNA (% UTC) ([2]; 512 nM),"APOE RNA (% UTC) ([2]; 1,280 nM)","APOE RNA (% UTC) ([2]; 3,200 nM)","APOE RNA (% UTC) ([2]; 8,000 nM)",also measured
1785598: modified oligonucleotide complementary to human APOE RNA (k[5mC]*kT*kT*dG[ms]dG[ms]dT[ms]dG[ms]dA[ms]dA[ms]dT*d[5mC]*dT*dT*dT*dA*dT[ms]kT*kA*dA[ms]kA; antisense) [compound 1785598],103,97,88,75,56,36,23,9,11,11,290,72,59,90,57,59,39,23,23,9,"APOE RNA (% UTC) ([2]; 20,000 nM): 11 % UTC; IC50 [2]: 180 nM; APOE RNA (% control) Cortex [3]: 29 % control; APOE RNA (% control) Spinal Cord [3]: 40 % control; APOE RNA (% control) Cortex [4]: 23 % control; APOE RNA (% control) Spinal Cord [4]: 16 % control; APOE RNA (% control) Cortex [5]: 36 % control; APOE RNA (% control) Spinal Cord [5]: 24 % control; APOE RNA (% control) Cortex [6]: 72 % control; APOE RNA (% control) Spinal Cord [6]: 30 % control"
1778111: modified oligonucleotide complementary to human APOE RNA (eA*e[5mC]eTeTeG*kG*dT*dG[ms]dA[ms]dA*dT*d[5mC]*dT*dT*dT*dA[ms]eTeT*eA*eA; antisense) [compound 1778111],106,88,91,77,62,43,32,21,14,8,440,67,68,41,41,32,62,59,43,25,"APOE RNA (% UTC) ([2]; 20,000 nM): 17 % UTC; IC50 [2]: 110 nM; APOE RNA (% control) Cortex [3]: 34 % control; APOE RNA (% control) Spinal Cord [3]: 53 % control; APOE RNA (% control) Cortex [4]: 41 % control; APOE RNA (% control) Spinal Cord [4]: 17 % control; APOE RNA (% control) Cortex [5]: 49 % control; APOE RNA (% control) Spinal Cord [5]: 27 % control; APOE RNA (% control) Cortex [6]: 59 % control; APOE RNA (% control) Spinal Cord [6]: 25 % control"
1757575 (eA*e[5mC]eTeT*kG*kG*dT*dG[ms]dA[ms]dA[ms]dT*d[5mC]*dT*dT*dT*dA[ms]kT*eT*eA*eA; antisense) [Compound 1757575],92,96,93,81,72,47,34,27,10,5,570,44,56,39,50,34,30,26,23,12,"APOE RNA (% UTC) ([2]; 20,000 nM): 11 % UTC; IC50 [2]: 10 nM; APOE RNA (% control) Cortex [3]: 38 % control; APOE RNA (% control) Spinal Cord [3]: 27 % control; APOE RNA (% control) Cortex [4]: 35 % control; APOE RNA (% control) Spinal Cord [4]: 32 % control; APOE RNA (% control) Cortex [5]: 33 % control; APOE RNA (% control) Spinal Cord [5]: 21 % control; APOE RNA (% control) Cortex [6]: 39 % control; APOE RNA (% control) Spinal Cord [6]: 88 % control"
1778128: modified oligonucleotide complementary to human APOE RNA (eA*e[5mC]eTeTkGkG*dT*dG[ms]dA[ms]dA*dT*d[5mC]*dT*dT*dT*dA[ms]kTeT*eA*eA; antisense) [compound 1778128],96,95,83,67,60,37,24,25,22,14,350,91,51,99,63,74,32,30,40,33,"APOE RNA (% UTC) ([2]; 20,000 nM): 23 % UTC; IC50 [2]: 530 nM; APOE RNA (% control) Cortex [3]: 31 % control; APOE RNA (% control) Spinal Cord [3]: 40 % control; APOE RNA (% control) Cortex [4]: 27 % control; APOE RNA (% control) Spinal Cord [4]: 25 % control; APOE RNA (% control) Cortex [5]: 34 % control; APOE RNA (% control) Spinal Cord [5]: 22 % control; APOE RNA (% control) Cortex [6]: 60 % control; APOE RNA (% control) Spinal Cord [6]: 22 % control"
